Assay results reported in the NIST ThermoML archive (doi:10.1021/je3006985).
± gives the expanded uncertainty stated by the source.

Assays:
[1] = osmotic coefficient (dimensionless); mn = molality of the nth substance listed, in mol/kg; conditions: 298.15 K, Liquid, Vapor Pressure Osmometer (Knaur K-7000)
[2] = mn = molality of the nth substance listed, in mol/kg; conditions: 298.15 K, 101 kPa, Liquid

CCN(CC)CC(=O)Nc1c(C)cccc1C.Cl [lidocaine hydrochloride] + O
Conditions	mass density, [2] [kg/m3]	osmotic coefficient, [1]
m1 = 0.01004	997.37 ± 0.091	0.879 ± 0.005
m1 = 0.02018	997.713 ± 0.091	0.83 ± 0.007
m1 = 0.02958	998.034 ± 0.091	0.807 ± 0.007
m1 = 0.03474	998.184 ± 0.091	0.8 ± 0.008
m1 = 0.03911	998.35 ± 0.091	0.796 ± 0.008
m1 = 0.04409	998.51 ± 0.09	0.793 ± 0.008
m1 = 0.04809	998.641 ± 0.09	0.792 ± 0.008
m1 = 0.05588	998.887 ± 0.091	0.792 ± 0.008
m1 = 0.07017	999.384 ± 0.09	0.796 ± 0.008
m1 = 0.09322	1000.14 ± 0.09	0.805 ± 0.008
m1 = 0.1151	1000.85 ± 0.09	0.812 ± 0.007
m1 = 0.141	1001.69 ± 0.09	0.813 ± 0.007
m1 = 0.1712	1002.65 ± 0.09	0.805 ± 0.008
m1 = 0.188	1003.15 ± 0.09	0.797 ± 0.008
m1 = 0.2082	1003.81 ± 0.09	0.785 ± 0.008
m1 = 0.2386	1004.84 ± 0.09	0.765 ± 0.009
m1 = 0.2675	1005.71 ± 0.09	0.748 ± 0.01
m1 = 0.2906	1006.37 ± 0.09	0.736 ± 0.01
m1 = 0.3089	1006.95 ± 0.1	0.728 ± 0.011
m1 = 0.3399	1007.94 ± 0.1	0.72 ± 0.011
m1 = 0.3919	1009.45 ± 0.1	0.718 ± 0.011
m1 = 0.4432	1011.03 ± 0.1	0.72 ± 0.011
m1 = 0.4982	1012.71 ± 0.1	0.696 ± 0.012

CCN(CC)CCOC(=O)c1ccc(N)cc1.Cl [2-diethylaminoethyl p-aminobenzoate hydrochloride] + O
Conditions	mass density, [2] [kg/m3]	osmotic coefficient, [1]
m1 = 0.0158	997.809 ± 0.1	0.885 ± 0.005
m1 = 0.01893	997.979 ± 0.096	0.873 ± 0.005
m1 = 0.02475	998.219 ± 0.096	0.856 ± 0.006
m1 = 0.03023	998.477 ± 0.098	0.843 ± 0.006
m1 = 0.03265	998.609 ± 0.096	0.838 ± 0.006
m1 = 0.03891	998.872 ± 0.096	0.827 ± 0.007
m1 = 0.04358	999.105 ± 0.098	0.82 ± 0.007
m1 = 0.04823	999.338 ± 0.097	0.814 ± 0.007
m1 = 0.05787	999.774 ± 0.096	0.804 ± 0.008
m1 = 0.0712	1000.37 ± 0.1	0.794 ± 0.008
m1 = 0.09584	1001.52 ± 0.1	0.781 ± 0.008
m1 = 0.1165	1002.46 ± 0.1	0.772 ± 0.009
m1 = 0.1438	1003.64 ± 0.1	0.759 ± 0.009
m1 = 0.1749	1005.05 ± 0.1	0.741 ± 0.01
m1 = 0.1973	1005.94 ± 0.11	0.727 ± 0.011
m1 = 0.2187	1007.01 ± 0.11	0.713 ± 0.011
m1 = 0.2457	1008.14 ± 0.11	0.694 ± 0.012
m1 = 0.2791	1009.54 ± 0.11	0.673 ± 0.013
m1 = 0.2997	1010.41 ± 0.11	0.661 ± 0.013
m1 = 0.3205	1011.32 ± 0.12	0.65 ± 0.014
m1 = 0.3523	1012.67 ± 0.12	0.636 ± 0.014
m1 = 0.4061	1014.95 ± 0.12	0.62 ± 0.015
m1 = 0.4613	1016.97 ± 0.13	0.609 ± 0.015
m1 = 0.517	1019.21 ± 0.14	0.587 ± 0.016

CCCCNc1ccc(C(=O)OCCN(C)C)cc1.Cl + O
Conditions	mass density, [2] [kg/m3]	osmotic coefficient, [1]
m1 = 0.01696	997.722 ± 0.094	0.896 ± 0.004
m1 = 0.0205	997.869 ± 0.095	0.884 ± 0.005
m1 = 0.02526	998.076 ± 0.094	0.871 ± 0.005
m1 = 0.0301	998.265 ± 0.093	0.858 ± 0.006
m1 = 0.03454	998.444 ± 0.093	0.848 ± 0.006
m1 = 0.03897	998.614 ± 0.093	0.839 ± 0.006
m1 = 0.04254	998.764 ± 0.094	0.832 ± 0.007
m1 = 0.04793	998.98 ± 0.094	0.822 ± 0.007
m1 = 0.05807	999.405 ± 0.093	0.805 ± 0.008
m1 = 0.06741	999.767 ± 0.092	0.79 ± 0.008
m1 = 0.07521	1000.07 ± 0.09	0.778 ± 0.009
m1 = 0.08589	1000.49 ± 0.09	0.762 ± 0.009
m1 = 0.09567	1000.88 ± 0.09	0.747 ± 0.01
m1 = 0.1161	1001.66 ± 0.09	0.716 ± 0.011
m1 = 0.1436	1002.67 ± 0.09	0.672 ± 0.013
m1 = 0.1726	1003.78 ± 0.09	0.622 ± 0.015
m1 = 0.1924	1004.46 ± 0.09	0.587 ± 0.016
m1 = 0.2427	1006.27 ± 0.1	0.498 ± 0.019
m1 = 0.3009	1008.22 ± 0.1	0.411 ± 0.023
m1 = 0.3479	1009.67 ± 0.1	0.367 ± 0.025
m1 = 0.4005	1011.44 ± 0.1	0.363 ± 0.025
